“Also recorded” adds a separate entry of the source. Like-named read-outs stand apart in the source and are kept apart here.
What was measured:
[1] = tested on: T29Kt1 cells; assay: cells; conditions: Homo sapiens, T29Kt1, read-out: IC50 in T29k cells, Table 1
[2] = tested on: H460 cells; assay: K-Ras siRNA knockdown, Oncrasin-induced apoptosis by FACS in H460 cells; assay type: cell-based, human; conditions: 1 μM, 12 h, compared with DMSO
Description: K-Ras knockdown inhibited Oncrasin-induced apoptosis. To further study the role of K-Ras gene in Oncrasin-induced cell death, H460 cells were treated with […] of K-Ras specific siRNA or a control siRNA for 24 h. The cells were then treated with DMSO or 1 μM Oncrasin-1. After another 12 h, the cells were harvested for apoptosis detection by fluorescence-activated cytometric assay. The cell lysate was also used to detect K-Ras gene expression.

[3] = tested on: ASF/SF2; assay: Antibody staining, subcellular localization of ASF/SF2; assay type: cell-based, human
Excerpt: (§1) Effects on RNA spliceosome. To investigate the nature of this PKCiota aggregates in the nucleus, the effect of Oncrasin-1 on SC35, a protein required for RNA splicing and assembly of spliceosome (Fu et al., 1992; Vellard et al., 1992), and on Rad51, a homologous DNA recombinase that involves in DNA repair (Benson et al., 1994; Baumann et al., 1996) were studied. […] and DNA repairing are the two important functions executed in the nucleus. In untreated or DMSO-treated cells, SC35 was localized in nucleus as speckles, either diffusely distributed or concentrated as granule clusters (Mistele et al., 1997), whereas Rad51 was more uniformly distributed inside the nucleus. […] This aggregation of SC35 was not observed in Oncrasin resistant T29 cells upon the treatment with Oncrasin-1. […] The effects of Oncrasin on another spliceosome protein, alternative splicing factor/splicing factor 2 (ASF/SF2), was studied (Krainer et al., 1991). […] In the resistant T29 cells, however, such an aggregation is not observed (FIG. 8C).

[4] = tested on: Raf-1; assay: Western blot analysis of Raf-1 expression; assay type: cell-based, human; conditions: listed as Oncrasin-1
Description: Ras Signaling Pathway and Molecular Mechanisms of Oncrasin-induced apoptosis. To investigate molecular mechanisms of apoptosis induction by Oncrasin compounds, levels several proteins that are involved in apoptosis and/or involved in Ras signaling pathways were determined, including Bax, Bik, Bc12, Bcl-XL, Raf-1, B-Raf, Akt, Mst1 and atypical protein kinase C (aPKC) zeta and PKCiota. To study which molecules are affected by Oncrasin treatment, T29, T29Kt1 and H460 cells were treated with Oncrasin-1 at an optimal concentration, around IC60 to IC80 for T29Kt1 and H460 cells. Cell lysates were collected 12 h after the treatment and subjected to Western blot analysis.
Suppression of Raf-1 expression by Oncrasin-1. […] To elucidate the roles of Raf-1 in Oncrasin-induced apoptosis, the inventors evaluated the expression of Raf-1 in H460 cells after treatment with different concentrations of Oncrasin-1. […] Because Raf-1 executes anti-apoptosis function via a variety of pathways. […] However, the resistance to Oncrasin-1 was more prominent in the constitutively active Raf-1-transfected cells than in cells with the wild-type Raf-1 (FIG. 10C and FIG. 10D).

[5] = tested on: Icmt−/− MEF; assay: Icmt-dependent growth inhibition, Icmt−/− MEF; assay type: cell-based, mouse; conditions: up to 100 μM
Excerpt: Oncrasin and Oncrasin Analogs. Chemically, Oncrasin-1 has the same core structure as indole-3-carbinol, a naturally occurring constituent of many plant foods that has been tested for the prevention and treatment of cancer (Brignall, 2001; Kelloff et al., 1996; Chinni et al., 2001). Oncrasin-1 also has structural similarity to sulindac (Taylor et al., 2000; Sun et al., 2002) and lonidamine (Ravagnan et al., 1999; Papaldo et al., 2003), both of which have been evaluated preclinically and clinically for treatment of cancers. […] Oncrasin compounds also bear a indole core structure as the small-molecule inhibitor of isoprenylcysteine carboxylmethyltransferase (Icmt), 2-[5-(3-methylphenyl)-1-octyl-1H-indol-3-yl]acetamide (cysmethynil), which also induces antitumor activity in Ras gene mutant cancer cells (Winter-Vann et al., 2005). […] Both wild-type MEF and Icmt−/− MEF (Bergo et al., 2004) (kindly provided by Dr. S G Young at the University of California, San Francisco) were resistant to Oncrasin-1.

[6] = tested on: Rad51; assay: Antibody staining, subcellular localization of Rad51; assay type: cell-based, human; conditions: T29Kt1 cells
Excerpt: as §1

[7] = tested on: SC35; assay: Antibody staining, subcellular localization of SC35 (spliceosome); assay type: cell-based, human
Excerpt: as §1

[8] = tested on: PKCiota; assay: Immunohistochemical staining, subcellular localization of PKCiota; assay type: cell-based, human
Description: Effects on subcellular localization of PKCiota. […] To further investigate molecular mechanisms of Oncrasin action the inventors studied the subcellular localization of several molecules involved in Ras-signaling pathway because the functions of Ras and other proteins are directly related to their subcellular localizations. For this purpose, T29Kt1 or H460 cells were seeded on cover glass slides and treated with DMSO or Oncrasin-1 for 12 h. Cells were then fixed with paraformaldehyde, permeabilized with Triton X-100 and stained with various antibodies for immunohistochemical examination. […] Nevertheless, substantial subcellular localization change was detected for PKCiota after Oncrasin-1 treatment (FIG. 6). In both H460 and T29Kt1 cells, both PKCiota and PKCzeta were diffusely distributed in cells with high concentration on cell membrane in nucleus, consisting with previous reports that aPKC contains both nuclear localization signal (NLS) and nuclear export signal (NES), and can shuttle between cytoplasm and nucleus, which was regulated by intramolecular conformational changes, phosphorylation or by treatment with growth factors (Perander et al., 2001; White et al., 2002; Neri et al., 1999). […] Such aggregation of PKCiota was not observed in Oncrasin-resistant T29 and H1299 cells. The inventors then tested whether PKCiota aggregation in the nucleus can be induced by other chemotherapeutic agents such as 5-fluorouracil (5-FU) and paclitaxol.

[9] = tested on: T29 cells

Structure (SMILES)	IC50 [1] [nM]	apoptotic cells, control siRNA treated H460 [2]	ASF/SF2 localization, T29Kt1 cells [3]	ASF/SF2 aggregation, T29 cells ([3]; resistant cells)	Raf-1 level in H460 cells [4]	growth inhibition, Icmt−/− MEF [5]	effect on Rad51 [6]	SC35 localization, T29Kt1 cells [7]	SC35 aggregation, T29 cells ([7]; Oncrasin resistant cells)	PKCiota aggregation in the nucleus, H460 cells ([8]; 12 h)	PKCiota aggregation in the nucleus, T29Kt1 cells ([8]; 12 h, comparators at doses giving similar cell killing)	PKCiota aggregation, T29 and H1299 cells ([8]; Oncrasin-resistant cells)	toxicity to T29 cells ([9]; at 33 μM (the highest concentration tested))	toxicity to T29 cells ([9]; at any of the doses tested (dose response))	cytotoxicity in T29 cells ([9]; up to 100 μM, the highest concentration tested)
OCc1cn(Cc2ccc(Cl)cc2)c2ccccc12 [Oncrasin K060, 1H-Indole-3-methanol, 1-[(4-chlorophenyl)methyl]-]	79.4														
O=Cc1cn(Cc2ccc(Cl)cc2)c2ccccc12 [Oncrasin K001, 1H-Indole-3-carboxaldehyde, 1-[(4-chlorophenyl)methyl]-(9CI)]		dramatic increase of apoptotic cells	induced ASF/SF2 aggregation inside nucleus	not observed	dramatically reduces raf-1; also recorded: down regulation; also recorded: dramatically reduced Raf-1 production; also recorded: dramatic reduction in Raf-1	resistant	no obvious effect	aggregation of SC35 into several large foci	not observed	aggregation of PKCiota into large foci in nucleus	aggregation of PKCiota into large foci in nucleus	not observed	not toxic	not toxic	no detectable cytotoxicity

Source: US8883841B2, “Oncogenic ras-specific cytotoxic compound and methods of use thereof” (The Board of Regents of the University of Texas System, priority 2005, dated 2014)
